Measured values published in patent US12077503B2, “Substituted cyclic amides and their use as herbicides” (FMC CORPORATION, priority 2015, dated 2024).

Columns and labels:
Assay type in all cases: in vivo
Kochia (Kochia scoparia) [1] = experiment: Test A preemergence; details: Preemergence; for Plant response rating, Kochia: 125 g ai/ha, visual injury after approximately 10 d, 0 to 100 scale where 0 is no effect and 100 is complete control; for Kochia plant response rating (0 to 100 scale, 0 is no effect, 100 is complete control): 500 g ai/ha, visual injury approx. 10 d
Method in brief: (§1)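 Seeded soil received test chemicals as a preemergence directed spray, and seedlings at one to two leaves, 2–10 cm tall, received them postemergence, in a non-phytotoxic, surfactant-containing solvent mixture. Pots were held in a greenhouse for approximately 10 d, then rated for injury from 0, no effect, to 100, complete control.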

[2] = tested on: barnyardgrass (Echinochloa crus-galli); experiment: Test A preemergence; details: Preemergence; for Plant response rating, Barnyardgrass: 125 g ai/ha, visual injury after approximately 10 d, 0 to 100 scale where 0 is no effect and 100 is complete control; for Barnyardgrass plant response rating (0 to 100 scale, 0 is no effect, 100 is complete control): 500 g ai/ha, visual injury approx. 10 d
Method in brief: as §1

[3] = tested on: giant foxtail (Setaria faberii); experiment: Test A preemergence; details: Preemergence; for Plant response rating, Foxtail, Giant: 125 g ai/ha, visual injury after approximately 10 d, 0 to 100 scale where 0 is no effect and 100 is complete control; for Foxtail, Giant plant response rating (0 to 100 scale, 0 is no effect, 100 is complete control): 500 g ai/ha, visual injury approx. 10 d
Method in brief: as §1

[4] = tested on: pigweed (Amaranthus retroflexus); experiment: Test A preemergence; details: Preemergence; for Plant response rating, Pigweed: 125 g ai/ha, visual injury after approximately 10 d, 0 to 100 scale where 0 is no effect and 100 is complete control; for Pigweed plant response rating (0 to 100 scale, 0 is no effect, 100 is complete control): 500 g ai/ha, visual injury approx. 10 d
[5] = tested on: ragweed (common ragweed, Ambrosia elatior); experiment: Test A preemergence; details: Preemergence; for Plant response rating, Ragweed: 125 g ai/ha, visual injury after approximately 10 d, 0 to 100 scale where 0 is no effect and 100 is complete control; for Ragweed plant response rating (0 to 100 scale, 0 is no effect, 100 is complete control): 500 g ai/ha, visual injury approx. 10 d
Method in brief: as §1

[6] = tested on: ryegrass, Italian (Italian ryegrass, Lolium multiflorum); experiment: Test A preemergence; details: Preemergence; for Plant response rating, Ryegrass, Italian: 125 g ai/ha, visual injury after approximately 10 d, 0 to 100 scale where 0 is no effect and 100 is complete control; for Ryegrass, Italian plant response rating (0 to 100 scale, 0 is no effect, 100 is complete control): 500 g ai/ha, visual injury approx. 10 d
Method in brief: as §1

[7] = tested on: Galium (catchweed bedstraw, Galium aparine); experiment: Test A postemergence
Method in brief: as §1

Kochia (Kochia scoparia) [8] = experiment: Test A postemergence
Method in brief: as §1

[9] = tested on: barnyardgrass (Echinochloa crus-galli); experiment: Test A postemergence
Method in brief: as §1

[10] = tested on: blackgrass (Alopecurus myosuroides); experiment: Test A postemergence
Method in brief: as §1

corn (Zea mays) = experiment: Test A postemergence
Method in brief: as §1

[11] = tested on: giant foxtail (Setaria faberii); experiment: Test A postemergence
Method in brief: as §1

[12] = tested on: pigweed (Amaranthus retroflexus); experiment: Test A postemergence
Method in brief: as §1

[13] = tested on: ragweed (common ragweed, Ambrosia elatior); experiment: Test A postemergence
Method in brief: as §1

[14] = tested on: ryegrass, Italian (Italian ryegrass, Lolium multiflorum); experiment: Test A postemergence
Method in brief: as §1

[15] = tested on: wheat (Triticum aestivum); experiment: Test A postemergence
Method in brief: as §1

[16] = tested on: barnyardgrass (Echinochloa crus-galli); experiment: Test B flooded paddy test; details: Flood, 250 g ai/ha; 0 to 100 scale where 0 is no effect and 100 is complete control; 13 to 15 d
Method in brief: (§2)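 Evaluation by eye, against controls, occurred 13–15 d post-treatment in a greenhouse, using a 0 (no effect) to 100 (complete control) scale. Application was into the paddy water, 3 cm deep over the soil, on 2-leaf plants.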

[17] = tested on: ducksalad (Heteranthera limosa); experiment: Test B flooded paddy test; details: Flood, 250 g ai/ha; 0 to 100 scale where 0 is no effect and 100 is complete control; 13 to 15 d
Method in brief: as §2

rice (Oryra sativa) = experiment: Test B flooded paddy test; details: Flood, 250 g ai/ha; 0 to 100 scale where 0 is no effect and 100 is complete control; 13 to 15 d
Method in brief: as §2

[18] = tested on: sedge, umbrella (small-flower umbrella sedge, Cyperus difformis); experiment: Test B flooded paddy test; details: Flood, 250 g ai/ha; 0 to 100 scale where 0 is no effect and 100 is complete control; 13 to 15 d
Method in brief: as §2

[19] = 125 g ai/ha, postemergence, visual rating after approx. 10 d, 0 to 100 scale (0 no effect, 100 complete control)
[20] = Postemergence, 500 g ai/ha, 0 to 100 scale where 0 is no effect and 100 is complete control

Structure (SMILES)	Plant response rating, Kochia (Kochia (Kochia scoparia) [1])	Kochia plant response rating (0 to 100 scale, 0 is no effect, 100 is complete control) (Kochia (Kochia scoparia) [1])	Plant response rating, Barnyardgrass [2]	Barnyardgrass plant response rating (0 to 100 scale, 0 is no effect, 100 is complete control) [2]	Plant response rating, Foxtail, Giant [3]	Foxtail, Giant plant response rating (0 to 100 scale, 0 is no effect, 100 is complete control) [3]	Plant response rating, Pigweed [4]	Pigweed plant response rating (0 to 100 scale, 0 is no effect, 100 is complete control) [4]	Plant response rating, Ragweed [5]	Plant response rating, Ryegrass, Italian [6]	Ryegrass, Italian plant response rating (0 to 100 scale, 0 is no effect, 100 is complete control) [6]	Plant response rating, Galium [7, 19]	Plant response rating, Galium [7, 20]	Plant response rating, Kochia (Kochia (Kochia scoparia) [8]; [19])	Plant response rating, Kochia (Kochia (Kochia scoparia) [8]; [20])	Plant response rating, Barnyardgrass [9, 19]	Plant response rating, Barnyardgrass [9, 20]	Plant response rating, Blackgrass [10, 19]	Plant response rating, Blackgrass [10, 20]	Plant response rating, Corn (corn (Zea mays); [19])	other results
CC(C)Oc1cccc(C2CNC(=O)C2C(=O)Nc2cccc(F)c2F)c1 (centres unmarked) [Compound 553]	60	80	90	90	90	90	30	40	40	70	70	60	60	30	50	90	90	50	60	80	Plant response rating, Corn (corn (Zea mays); [20]): 90; Plant response rating, Foxtail, Giant [11, 19]: 70; Plant response rating, Foxtail, Giant [11, 20]: 90; Plant response rating, Pigweed [12, 19]: 20; Plant response rating, Pigweed [12, 20]: 30; Plant response rating, Ragweed [13, 19]: 30; Plant response rating, Ragweed [13, 20]: 40; Plant response rating, Ryegrass, Italian [14, 19]: 60; Plant response rating, Ryegrass, Italian [14, 20]: 70; Plant response rating, Wheat [15, 19]: 40; Plant response rating, Wheat [15, 20]: 60; Plant response rating, Barnyardgrass [16]: 65; Plant response rating, Ducksalad [17]: 100; Plant response rating, Rice (rice (Oryra sativa)): 10; Plant response rating, Sedge, Umbrella [18]: 0
CC(C)Oc1cccc(C2CNC(=O)C2C(=O)Nc2ccc(F)c(F)c2F)c1 (centres unmarked) [Compound 554]	70	90	90	90	90	90	0	30	20	20	40	60	60	20	50	80	90	60	70	40	Ragweed plant response rating (0 to 100 scale, 0 is no effect, 100 is complete control) [5]: 70; Plant response rating, Corn (corn (Zea mays); [20]): 70; Plant response rating, Foxtail, Giant [11, 19]: 70; Plant response rating, Foxtail, Giant [11, 20]: 80; Plant response rating, Pigweed [12, 19]: 0; Plant response rating, Pigweed [12, 20]: 0; Plant response rating, Ragweed [13, 19]: 0; Plant response rating, Ragweed [13, 20]: 30; Plant response rating, Ryegrass, Italian [14, 19]: 40; Plant response rating, Ryegrass, Italian [14, 20]: 90; Plant response rating, Wheat [15, 19]: 20; Plant response rating, Wheat [15, 20]: 50; Plant response rating, Barnyardgrass [16]: 55; Plant response rating, Ducksalad [17]: 100; Plant response rating, Rice (rice (Oryra sativa)): 25; Plant response rating, Sedge, Umbrella [18]: 0
O=C1NCC(c2cc(C(F)(F)F)cc(C(F)(F)F)c2)C1C(=O)Nc1ccc(F)cc1F (centres unmarked) [Compound 589]	0	0	80	90	80	90	0	0	0	0	40	0	0	0	0	60	80	20	40	10	Ragweed plant response rating (0 to 100 scale, 0 is no effect, 100 is complete control) [5]: 0; Plant response rating, Corn (corn (Zea mays); [20]): 60; Plant response rating, Foxtail, Giant [11, 19]: 80; Plant response rating, Foxtail, Giant [11, 20]: 80; Plant response rating, Pigweed [12, 19]: 0; Plant response rating, Pigweed [12, 20]: 0; Plant response rating, Ragweed [13, 19]: 0; Plant response rating, Ragweed [13, 20]: 0; Plant response rating, Ryegrass, Italian [14, 19]: 20; Plant response rating, Ryegrass, Italian [14, 20]: 40; Plant response rating, Wheat [15, 19]: 0; Plant response rating, Wheat [15, 20]: 50; Plant response rating, Barnyardgrass [16]: 60; Plant response rating, Ducksalad [17]: 70; Plant response rating, Rice (rice (Oryra sativa)): 20; Plant response rating, Sedge, Umbrella [18]: 0
